Data from patent publication US20220280476A1, “KCNT1 INHIBITORS AND METHODS OF USE” (Praxis Precision Medicines, Inc., priority 2019, published 2022).

Target: T1, KCNT1 (KNa1.1, Slack) (Homo sapiens, UniProt Q5JUK3)
T1 construct: expressed in transfected cells; host or cells: HEK-TREX (tetracycline-inducible HEK cell line)
T1 sequence (Q5JUK3 1-1230): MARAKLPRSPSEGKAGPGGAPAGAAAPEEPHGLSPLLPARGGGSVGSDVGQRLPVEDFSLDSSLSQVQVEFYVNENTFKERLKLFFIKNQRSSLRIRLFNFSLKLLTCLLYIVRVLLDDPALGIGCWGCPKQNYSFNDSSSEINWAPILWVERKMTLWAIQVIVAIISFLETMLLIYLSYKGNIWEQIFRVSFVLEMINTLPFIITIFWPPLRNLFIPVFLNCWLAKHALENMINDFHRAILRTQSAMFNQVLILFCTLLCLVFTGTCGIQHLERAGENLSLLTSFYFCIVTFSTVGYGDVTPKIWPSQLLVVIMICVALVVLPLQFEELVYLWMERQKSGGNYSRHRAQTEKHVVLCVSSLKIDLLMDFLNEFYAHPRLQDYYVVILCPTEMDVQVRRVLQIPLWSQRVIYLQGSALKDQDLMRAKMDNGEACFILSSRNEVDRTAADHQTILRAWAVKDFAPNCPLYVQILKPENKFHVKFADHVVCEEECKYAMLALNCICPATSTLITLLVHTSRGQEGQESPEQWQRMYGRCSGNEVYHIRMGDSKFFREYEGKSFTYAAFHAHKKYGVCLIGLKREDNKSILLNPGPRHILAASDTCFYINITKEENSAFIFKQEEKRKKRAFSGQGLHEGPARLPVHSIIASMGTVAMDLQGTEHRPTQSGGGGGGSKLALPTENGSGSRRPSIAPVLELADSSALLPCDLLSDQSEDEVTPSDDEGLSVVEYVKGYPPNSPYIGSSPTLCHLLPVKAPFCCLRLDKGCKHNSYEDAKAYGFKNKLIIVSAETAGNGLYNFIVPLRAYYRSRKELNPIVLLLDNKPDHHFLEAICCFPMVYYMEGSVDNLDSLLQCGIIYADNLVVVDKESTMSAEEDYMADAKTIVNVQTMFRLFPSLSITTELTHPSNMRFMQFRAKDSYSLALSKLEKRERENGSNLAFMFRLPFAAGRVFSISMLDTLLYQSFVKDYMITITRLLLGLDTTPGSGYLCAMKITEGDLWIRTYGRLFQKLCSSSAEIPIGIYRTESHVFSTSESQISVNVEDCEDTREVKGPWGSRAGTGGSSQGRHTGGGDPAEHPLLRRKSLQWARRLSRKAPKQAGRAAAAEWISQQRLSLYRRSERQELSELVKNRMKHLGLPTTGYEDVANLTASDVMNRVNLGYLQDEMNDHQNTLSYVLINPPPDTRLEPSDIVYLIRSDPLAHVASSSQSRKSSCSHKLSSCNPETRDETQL
Assay: KCNT1-WT-Basal patch clamp assay (SyncroPatch 384PE, HEK-TREX inducible cell line)
Assay type: cell-based
Conditions: tetracycline inducible HEK-TREX cells; perforated patch; holding -80 mV, 100 ms step to 0 mV; room temperature; read-out: KCNT1 WB IC50
Method: KCNT1-WT-Basal—Patch Clamp Assay
Inhibition of KCNT1 (KNa1.1, Slack) was evaluated using a tetracycline inducible cell line (HEK-TREX). Currents were recorded using the SyncroPatch 384PE automated, patch clamp system. Pulse generation and data collection were performed with PatchController384 V1.3.0 and DataController384 V1.2.1 (Nanion Technologies). The access resistance and apparent membrane capacitance were estimated using built-in protocols. Current were recorded in perforated patch mode (10 μM escin) from a population of cells. The cells were lifted, triturated, and resuspended at 800,000 cells/ml. The cells were allowed to recover in the cell hotel prior to experimentation. Currents were recorded at room temperature. The external solution contained the following (in mM): NaCl 105, NMDG 40, KCl 4, MgCl2 1, CaCl2 5 and HEPES 10 (pH=7.4, Osmolarity ˜300 mOsm). The extracellular solution was used as the wash, reference and compound delivery solution. The internal solution contained the following (in mM): NaCl 70, KF 70, KCl 10, EGTA 5, HEPES 5 and Escin 0.01 (pH=7.2, Osmolarity ˜295 mOsm). Escin is made at a 5 mM stock in water, aliquoted, and stored at −20° C. The compound plate was created at 2× concentrated in the extracellular solution. The compound was diluted to 1:2 when added to the recording well. The amount of DMSO in the extracellular solution was held constant at the level used for the highest tested concentration. A holding potential of −80 mV with a 100 ms step to 0 mV was used. Mean current was measured during the step to 0 mV. […] The average mean current from 3 sweeps was calculated and the % inhibition of each compound was calculated. The % Inhibition as a function of the compound concentration was fit with a Hill equation to derive IC50, slope, min and max parameters. If KCNT1 inhibition was less than 50% at the highest tested concentration or if an IC50 could not be calculated, then a percent inhibition was reported in place of the IC50.

Q: Which IC50 does the source give for `NS(=O)(=O)c1c[nH]c(C(=O)N[C@@H]2CCc3cc(Cl)ccc32)c1` [Compound I-14] here?
A: The IC50 was no less than 20000 nM.

Q: How did the IC50 turn out when `CN(C)S(=O)(=O)c1ccc(C(=O)N[C@@H]2CCc3cc(Cl)ccc32)s1` [Compound I-15] was run?
A: The IC50 was no more than 1000 nM.

Q: `CNS(=O)(=O)c1ccc(C(=O)N[C@@H]2CCc3cc(Cl)ccc32)s1` [Compound I-16] was tested. Which IC50 did it give?
A: Its IC50 is no more than 1000 nM.

Q: For `O=C(N[C@@H]1CCc2cc(Cl)ccc21)c1ccc(S(=O)(=O)N2CCCC2)s1` [Compound I-17], which IC50 is on record?
A: The IC50 was no more than 1000 nM.

Q: For `CS(=O)(=O)c1ccc(C(=O)N[C@@H]2CCc3cc(Cl)ccc32)s1` [Compound I-18], which IC50 is on record?
A: Its IC50 is no more than 1000 nM.

Q: `O=C(N[C@@H]1CCc2cc(Cl)ccc21)c1ccc(S(=O)(=O)N2CCC2)s1` [Compound I-19] was tested. Which IC50 did it give?
A: Its IC50 is no more than 1000 nM.

Q: How did the IC50 turn out when `NC(=O)c1ccc(C(=O)N[C@@H]2CCc3cc(Cl)ccc32)s1` [Compound I-20] was run?
A: The IC50 was no more than 1000 nM.

Q: Which IC50 does the source give for `O=C(N[C@@H]1CCc2cc(Cl)ccc21)c1ccc(S(=O)(=O)C2CC2)s1` [Compound I-21] here?
A: The IC50 was no more than 1000 nM.

Q: For `Cn1nc(C(F)(F)F)cc1C(=O)N[C@@H]1CCc2cc(Cl)ccc21` [Compound I-26], which IC50 is on record?
A: The IC50 was no more than 1000 nM.

Q: How did the IC50 turn out when `CS(=O)(=O)c1ncc(C(=O)N[C@@H]2CCc3cc(Cl)ccc32)s1` [Compound I-27] was run?
A: The IC50 was no more than 1000 nM.

Q: How did the IC50 turn out when `CNC(=O)c1ccc(C(=O)N[C@@H]2CCc3cc(Cl)ccc32)s1` [Compound I-28] was run?
A: The IC50 was no more than 1000 nM.

Q: How did the IC50 turn out when `CN(C)C(=O)c1ccc(C(=O)N[C@@H]2CCc3cc(Cl)ccc32)s1` [Compound I-29] was run?
A: The IC50 was no more than 1000 nM.

Q: How did the IC50 turn out when `CCS(=O)(=O)c1ccc(C(=O)N[C@@H]2CCc3cc(Cl)ccc32)s1` [Compound I-34] was run?
A: Its IC50 is no more than 1000 nM.

Q: How did the IC50 turn out when `COCc1ccc(C(=O)N[C@@H]2CCc3cc(Cl)ccc32)s1` [Compound I-36] was run?
A: Its IC50 is no more than 1000 nM.

Q: `O=C(N[C@@H]1CCc2cc(Cl)ccc21)c1cnc(Cl)s1` [Compound I-37] was tested. Which IC50 did it give?
A: The IC50 was no more than 1000 nM.

Q: `CN(C)Cc1ccc(C(=O)N[C@@H]2CCc3cc(Cl)ccc32)s1` [Compound I-38] was tested. Which IC50 did it give?
A: Its IC50 is 1000 to 20000 nM.

Q: For `CC(=O)N(C)Cc1ccc(C(=O)N[C@@H]2CCc3cc(Cl)ccc32)s1` [Compound I-39], which IC50 is on record?
A: Its IC50 is no more than 1000 nM.

Q: Which IC50 does the source give for `O=C(N[C@@H]1CCc2cc(Cl)ccc21)c1ccc(S(=O)(=O)N2CC[C@@H](O)C2)s1` [Compound I-40] here?
A: The IC50 was no more than 1000 nM.

Q: Which IC50 does the source give for `O=C(N[C@@H]1CCc2cc(Cl)ccc21)c1ccc(S(=O)(=O)N2CC[C@H](O)C2)s1` [Compound I-41] here?
A: The IC50 was no more than 1000 nM.

Q: Which IC50 does the source give for `CN1CCN(S(=O)(=O)c2ccc(C(=O)N[C@@H]3CCc4cc(Cl)ccc43)s2)CC1` [Compound I-42] here?
A: The IC50 was no more than 1000 nM.

Q: Which IC50 does the source give for `CO[C@H]1CCN(S(=O)(=O)c2ccc(C(=O)N[C@@H]3CCc4cc(Cl)ccc43)s2)C1` [Compound I-43] here?
A: Its IC50 is no more than 1000 nM.

Q: For `CC(=O)NCc1ccc(C(=O)N[C@@H]2CCc3cc(Cl)ccc32)s1` [Compound I-44], which IC50 is on record?
A: Its IC50 is no more than 1000 nM.

Q: How did the IC50 turn out when `O=C(N[C@@H]1CCc2cc(Cl)ccc21)c1ccc(S(=O)(=O)N2CCOCC2)s1` [Compound I-45] was run?
A: The IC50 was no more than 1000 nM.

Q: `CO[C@@H]1CCN(S(=O)(=O)c2ccc(C(=O)N[C@@H]3CCc4cc(Cl)ccc43)s2)C1` [Compound I-46] was tested. Which IC50 did it give?
A: The IC50 was no more than 1000 nM.

Q: For `COCCS(=O)(=O)c1ccc(C(=O)N[C@@H]2CCc3cc(Cl)ccc32)s1` [Compound I-47], which IC50 is on record?
A: The IC50 was no more than 1000 nM.

Q: `CS(=O)(=O)Nc1ccc(C(=O)N[C@H]2CCc3cc(Cl)ccc32)cc1` [Compound II-3] was tested. Which IC50 did it give?
A: The IC50 was no less than 20000 nM.

Q: How did the IC50 turn out when `CS(=O)(=O)Nc1ccc(C(=O)N[C@@H]2CCc3cc(Cl)ccc32)cc1` [Compound II-4, N-[(1R)-5-chloroindan-1-yl]-4-(methanesulfonamido)benzamide] was run?
A: The IC50 was no more than 1000 nM.

Q: For `Nc1ccc(C(=O)N[C@@H]2CCc3cc(Cl)ccc32)cc1` [Compound II-9, 4-amino-N-[(1R)-5-chloroindan-1-yl]benzamide], which IC50 is on record?
A: Its IC50 is 1000 to 20000 nM.

Q: `CCS(=O)(=O)Nc1ccc(C(=O)N[C@@H]2CCc3cc(Cl)ccc32)cc1` [Compound II-10, N-[(1R)-5-chloroindan-1-yl]-4-(ethylsulfonylamino)benzamide] was tested. Which IC50 did it give?
A: Its IC50 is no more than 1000 nM.

Q: `O=C(N[C@@H]1CCc2cc(Cl)ccc21)c1ccc(NS(=O)(=O)C2CC2)cc1` [Compound II-11, N-[(1R)-5-chloroindan-1-yl]-4-(cyclopropylsulfonylamino)benzamide] was tested. Which IC50 did it give?
A: The IC50 was 1000 to 20000 nM.
